Data on three compounds can be found in ChEMBL document CHEMBL5715954, “Silencing c-Myc translation as a therapeutic strategy through targeting PI3Kδ and CK1ε in hematological malignancies” (Blood, 2017).

What all share (set-up): scale not given: the % may be the effect or the level left
Experiment [1] concerns the target CDK7/Cyclin H/MNAT1 (Homo sapiens) (UniProt P51946+P50613+P51948). The experiment is described as follows: Inhibition of human CDK7/Cyclin H/MNAT1 assessed as enzyme activity at 1 uM using myelin basic protein as substrate preincubated for 20 mins followed by [gamma-33P]-ATP addition and measured after 120 mins by radiometric Hot-SpotSM Kinase assay relative to control. The class given is protein-complex assay.

The target of experiment [2] is T1, Serine/threonine-protein kinase haspin (Homo sapiens) (UniProt Q8TF76).
T1 sequence (whole entry): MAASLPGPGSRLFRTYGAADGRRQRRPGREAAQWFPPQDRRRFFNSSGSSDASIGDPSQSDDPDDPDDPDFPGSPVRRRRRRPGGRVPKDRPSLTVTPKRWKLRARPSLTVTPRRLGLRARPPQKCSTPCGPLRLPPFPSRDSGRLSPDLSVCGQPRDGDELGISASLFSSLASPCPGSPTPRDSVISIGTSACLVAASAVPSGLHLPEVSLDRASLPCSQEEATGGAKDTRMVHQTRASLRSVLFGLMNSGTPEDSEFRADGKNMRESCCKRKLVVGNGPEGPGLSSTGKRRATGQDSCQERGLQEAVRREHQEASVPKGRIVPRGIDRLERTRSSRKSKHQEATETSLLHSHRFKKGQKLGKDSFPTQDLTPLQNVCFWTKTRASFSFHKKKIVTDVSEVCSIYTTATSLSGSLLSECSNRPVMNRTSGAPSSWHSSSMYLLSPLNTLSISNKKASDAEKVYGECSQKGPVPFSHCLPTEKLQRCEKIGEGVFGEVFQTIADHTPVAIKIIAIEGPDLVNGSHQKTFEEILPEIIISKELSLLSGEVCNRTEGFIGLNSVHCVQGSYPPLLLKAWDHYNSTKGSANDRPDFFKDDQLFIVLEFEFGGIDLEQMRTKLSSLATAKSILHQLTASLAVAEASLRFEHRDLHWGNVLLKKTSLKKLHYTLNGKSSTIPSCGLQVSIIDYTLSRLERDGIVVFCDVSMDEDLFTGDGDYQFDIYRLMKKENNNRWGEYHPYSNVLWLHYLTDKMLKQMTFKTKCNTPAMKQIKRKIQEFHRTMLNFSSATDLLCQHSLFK
The experiment is described as follows: Inhibition of human Haspin assessed as enzyme activity at 1 uM using histone H3 as substrate preincubated for 20 mins followed by [gamma-33P]-ATP addition and measured after 120 mins by radiometric Hot-SpotSM Kinase assay relative to control.

Experiment [3] has as its target Tyrosine-protein kinase Srms (Homo sapiens) (UniProt Q9H3Y6). The experiment in a line: Inhibition of human SRMS assessed as enzyme activity at 1 uM using poly[Glu:Tyr] (4:1) as substrate preincubated for 20 mins followed by [gamma-33P]-ATP addition and measured after 120 mins by radiometric Hot-SpotSM Kinase assay relative to control.
Experiment [4] has as its target SRSF protein kinase 1 (Homo sapiens) (UniProt Q96SB4). The experiment in a line: Inhibition of human SRPK1 assessed as enzyme activity at 1 uM using GRSRSRSRSR as substrate preincubated for 20 mins followed by [gamma-33P]-ATP addition and measured after 120 mins by radiometric Hot-SpotSM Kinase assay relative to control.
Experiment [5] has as its target ALK tyrosine kinase receptor (Homo sapiens) (UniProt Q9UM73). The experiment in a line: Inhibition of human ALK assessed as enzyme activity at 1 uM using poly[Glu:Tyr] (4:1) as substrate preincubated for 20 mins followed by [gamma-33P]-ATP addition and measured after 120 mins by radiometric Hot-SpotSM Kinase assay relative to control.
Experiment [6] has as its target Protein kinase C beta type (Homo sapiens) (UniProt P05771). The experiment in a line: Inhibition of human PKCb1 assessed as enzyme activity at 1 uM using ERMRPRKRQGSVRRRV as substrate preincubated for 20 mins followed by [gamma-33P]-ATP addition and measured after 120 mins by radiometric Hot-SpotSM Kinase assay relative to control.
The target in experiment [7] is Calcium/calmodulin-dependent protein kinase type 1D (Homo sapiens) (UniProt Q8IU85). The experiment in a line: Inhibition of human CAMK1d assessed as enzyme activity at 1 uM using KKALRRQETVDAL as substrate preincubated for 20 mins followed by [gamma-33P]-ATP addition and measured after 120 mins by radiometric Hot-SpotSM Kinase assay relative to control.
Sequence of Calcium/calmodulin-dependent protein kinase type 1D (Homo sapiens) (Q8IU85 whole entry, looked up): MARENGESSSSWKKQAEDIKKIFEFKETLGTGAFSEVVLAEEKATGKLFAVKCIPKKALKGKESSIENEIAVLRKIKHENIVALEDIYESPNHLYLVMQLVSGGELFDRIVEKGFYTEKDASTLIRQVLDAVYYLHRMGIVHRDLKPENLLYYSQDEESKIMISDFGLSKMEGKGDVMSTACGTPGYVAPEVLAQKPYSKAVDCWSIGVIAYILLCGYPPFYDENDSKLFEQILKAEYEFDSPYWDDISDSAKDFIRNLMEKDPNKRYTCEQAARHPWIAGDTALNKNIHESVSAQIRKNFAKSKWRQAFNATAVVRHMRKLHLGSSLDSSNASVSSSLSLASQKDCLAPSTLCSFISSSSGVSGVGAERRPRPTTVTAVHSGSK
Experiment [8] addresses Protein kinase C delta type (Homo sapiens) (UniProt Q05655). The experiment in a line: Inhibition of human PKCd assessed as enzyme activity at 1 uM using ERMRPRKRQGSVRRRV as substrate preincubated for 20 mins followed by [gamma-33P]-ATP addition and measured after 120 mins by radiometric Hot-SpotSM Kinase assay relative to control.
The species named for the next experiment is Homo sapiens. The experiment in a line: Inhibition of human CDK2/cyclin A assessed as enzyme activity at 1 uM using RB Protein as substrate preincubated for 20 mins followed by [gamma-33P]-ATP addition and measured after 120 mins by radiometric Hot-SpotSM Kinase assay relative to control.
Experiment [9] addresses Serine/threonine-protein kinase 24 (Homo sapiens) (UniProt Q9Y6E0). The experiment in a line: Inhibition of human MST3 assessed as enzyme activity at 1 uM using myelin basic protein as substrate preincubated for 20 mins followed by [gamma-33P]-ATP addition and measured after 120 mins by radiometric Hot-SpotSM Kinase assay relative to control.
Experiment [10] has as its target Serine/threonine-protein kinase MARK2 (Homo sapiens) (UniProt Q7KZI7). The experiment is described as follows: Inhibition of human PAR-1Ba assessed as enzyme activity at 1 uM using KKKVSRSGLYRSPSMPENLNRPR as substrate preincubated for 20 mins followed by [gamma-33P]-ATP addition and measured after 120 mins by radiometric Hot-SpotSM Kinase assay relative to control.

Sequence of ALK tyrosine kinase receptor (Homo sapiens) (Q9UM73 19-1620 limits assumed): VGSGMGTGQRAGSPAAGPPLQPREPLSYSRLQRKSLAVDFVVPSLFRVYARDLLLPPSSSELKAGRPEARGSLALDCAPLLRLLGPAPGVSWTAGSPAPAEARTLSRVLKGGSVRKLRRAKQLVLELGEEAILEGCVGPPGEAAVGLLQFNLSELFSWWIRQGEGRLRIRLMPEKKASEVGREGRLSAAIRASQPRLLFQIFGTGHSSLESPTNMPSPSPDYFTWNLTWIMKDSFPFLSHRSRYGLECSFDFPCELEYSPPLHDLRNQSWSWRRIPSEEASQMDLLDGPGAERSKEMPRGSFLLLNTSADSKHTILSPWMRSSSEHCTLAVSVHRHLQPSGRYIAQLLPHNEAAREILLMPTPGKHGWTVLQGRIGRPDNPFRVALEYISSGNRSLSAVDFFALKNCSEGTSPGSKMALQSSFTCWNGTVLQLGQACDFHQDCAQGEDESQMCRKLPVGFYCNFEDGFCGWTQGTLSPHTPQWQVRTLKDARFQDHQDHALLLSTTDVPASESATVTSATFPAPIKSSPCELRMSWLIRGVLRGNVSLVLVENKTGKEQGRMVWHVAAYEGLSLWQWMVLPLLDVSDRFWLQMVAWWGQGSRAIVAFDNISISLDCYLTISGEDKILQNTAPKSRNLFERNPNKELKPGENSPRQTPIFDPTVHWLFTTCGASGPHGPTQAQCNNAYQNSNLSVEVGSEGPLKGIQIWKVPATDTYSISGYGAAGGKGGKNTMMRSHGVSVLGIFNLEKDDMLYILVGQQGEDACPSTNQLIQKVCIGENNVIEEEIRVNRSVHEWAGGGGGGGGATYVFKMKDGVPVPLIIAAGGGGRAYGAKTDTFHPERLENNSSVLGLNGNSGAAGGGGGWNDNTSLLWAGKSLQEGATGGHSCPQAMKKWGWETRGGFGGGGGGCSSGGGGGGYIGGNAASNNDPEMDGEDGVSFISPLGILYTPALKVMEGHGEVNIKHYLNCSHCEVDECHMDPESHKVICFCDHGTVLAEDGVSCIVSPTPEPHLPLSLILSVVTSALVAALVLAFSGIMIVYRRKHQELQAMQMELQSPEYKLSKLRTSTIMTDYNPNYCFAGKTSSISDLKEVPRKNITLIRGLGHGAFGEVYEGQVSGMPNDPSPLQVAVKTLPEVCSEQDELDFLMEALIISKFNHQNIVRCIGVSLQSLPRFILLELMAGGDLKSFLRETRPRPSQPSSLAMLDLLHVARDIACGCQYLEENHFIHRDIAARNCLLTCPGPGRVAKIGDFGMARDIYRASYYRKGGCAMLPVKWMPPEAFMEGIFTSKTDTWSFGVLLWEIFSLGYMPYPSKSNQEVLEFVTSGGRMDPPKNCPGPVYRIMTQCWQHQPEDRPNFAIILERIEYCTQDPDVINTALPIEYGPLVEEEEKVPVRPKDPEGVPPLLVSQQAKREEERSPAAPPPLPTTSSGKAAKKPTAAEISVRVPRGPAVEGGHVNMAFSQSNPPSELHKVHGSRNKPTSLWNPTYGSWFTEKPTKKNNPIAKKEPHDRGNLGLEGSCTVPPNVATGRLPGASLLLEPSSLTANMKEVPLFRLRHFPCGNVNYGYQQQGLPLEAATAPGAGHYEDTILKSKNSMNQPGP
Sequence of Tyrosine-protein kinase Srms (Homo sapiens) (Q9H3Y6 whole entry): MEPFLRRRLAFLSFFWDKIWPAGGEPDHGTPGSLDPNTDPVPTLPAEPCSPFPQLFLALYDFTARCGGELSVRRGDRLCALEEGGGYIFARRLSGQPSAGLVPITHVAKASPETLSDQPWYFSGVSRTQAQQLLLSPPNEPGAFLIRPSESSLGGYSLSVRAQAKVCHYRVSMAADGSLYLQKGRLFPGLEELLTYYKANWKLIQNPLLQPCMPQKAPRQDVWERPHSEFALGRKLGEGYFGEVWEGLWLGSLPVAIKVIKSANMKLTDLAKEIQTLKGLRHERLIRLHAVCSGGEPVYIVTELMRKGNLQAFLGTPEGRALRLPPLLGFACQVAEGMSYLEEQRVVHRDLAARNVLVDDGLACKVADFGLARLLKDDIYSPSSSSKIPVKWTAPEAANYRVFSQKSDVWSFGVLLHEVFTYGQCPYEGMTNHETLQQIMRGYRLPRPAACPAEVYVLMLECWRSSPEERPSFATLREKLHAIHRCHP
Sequence of Protein kinase C delta type (Homo sapiens) (Q05655 whole entry, looked up): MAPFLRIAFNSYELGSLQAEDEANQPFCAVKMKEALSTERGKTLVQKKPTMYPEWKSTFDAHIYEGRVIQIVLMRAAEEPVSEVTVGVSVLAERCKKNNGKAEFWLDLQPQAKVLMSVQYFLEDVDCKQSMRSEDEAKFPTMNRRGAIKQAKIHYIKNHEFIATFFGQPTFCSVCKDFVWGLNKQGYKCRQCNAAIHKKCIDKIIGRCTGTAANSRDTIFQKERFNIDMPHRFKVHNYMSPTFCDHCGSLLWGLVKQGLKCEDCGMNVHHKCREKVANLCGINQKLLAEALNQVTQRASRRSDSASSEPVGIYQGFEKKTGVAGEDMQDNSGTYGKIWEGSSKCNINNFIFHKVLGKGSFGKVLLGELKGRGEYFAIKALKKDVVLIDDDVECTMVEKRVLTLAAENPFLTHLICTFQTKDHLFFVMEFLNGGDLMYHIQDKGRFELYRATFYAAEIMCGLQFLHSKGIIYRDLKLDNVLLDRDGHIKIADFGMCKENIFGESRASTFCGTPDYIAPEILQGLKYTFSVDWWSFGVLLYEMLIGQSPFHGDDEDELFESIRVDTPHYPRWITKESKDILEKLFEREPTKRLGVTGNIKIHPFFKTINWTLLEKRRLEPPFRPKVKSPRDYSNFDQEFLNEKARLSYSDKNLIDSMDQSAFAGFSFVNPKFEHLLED
Sequence of SRSF protein kinase 1 (Homo sapiens) (Q96SB4 whole entry): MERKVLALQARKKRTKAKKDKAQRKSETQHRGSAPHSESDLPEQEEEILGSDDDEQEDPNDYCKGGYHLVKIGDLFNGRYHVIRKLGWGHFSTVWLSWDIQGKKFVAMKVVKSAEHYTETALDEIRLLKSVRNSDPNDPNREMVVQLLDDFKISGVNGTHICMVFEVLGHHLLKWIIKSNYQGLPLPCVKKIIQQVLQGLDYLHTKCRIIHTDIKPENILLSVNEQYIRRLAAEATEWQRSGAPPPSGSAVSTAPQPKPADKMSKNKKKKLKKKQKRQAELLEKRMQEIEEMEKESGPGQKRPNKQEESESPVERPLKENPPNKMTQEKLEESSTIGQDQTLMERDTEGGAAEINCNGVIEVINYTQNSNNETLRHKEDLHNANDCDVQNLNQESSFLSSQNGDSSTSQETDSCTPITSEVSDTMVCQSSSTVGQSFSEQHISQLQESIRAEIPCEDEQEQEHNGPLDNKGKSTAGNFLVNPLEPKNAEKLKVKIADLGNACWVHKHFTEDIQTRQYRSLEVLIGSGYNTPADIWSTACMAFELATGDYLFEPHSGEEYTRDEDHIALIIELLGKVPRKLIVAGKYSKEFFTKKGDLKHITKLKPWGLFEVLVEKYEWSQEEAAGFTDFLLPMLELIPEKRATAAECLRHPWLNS
Sequence of Serine/threonine-protein kinase 24 (Homo sapiens) (Q9Y6E0 whole entry, looked up): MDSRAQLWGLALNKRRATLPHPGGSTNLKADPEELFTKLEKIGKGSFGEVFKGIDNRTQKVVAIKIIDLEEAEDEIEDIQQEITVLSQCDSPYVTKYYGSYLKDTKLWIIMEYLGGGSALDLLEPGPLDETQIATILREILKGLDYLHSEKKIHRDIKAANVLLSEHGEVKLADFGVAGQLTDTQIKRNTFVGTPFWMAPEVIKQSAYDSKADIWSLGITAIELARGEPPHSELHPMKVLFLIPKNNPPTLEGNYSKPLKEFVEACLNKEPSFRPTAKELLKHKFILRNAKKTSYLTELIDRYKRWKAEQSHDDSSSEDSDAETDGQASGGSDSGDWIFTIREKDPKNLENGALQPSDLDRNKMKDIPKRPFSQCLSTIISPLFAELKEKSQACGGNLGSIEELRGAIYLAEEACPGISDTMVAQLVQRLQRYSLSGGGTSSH
Sequence of Protein kinase C beta type (Homo sapiens) (P05771 2-671 limits assumed): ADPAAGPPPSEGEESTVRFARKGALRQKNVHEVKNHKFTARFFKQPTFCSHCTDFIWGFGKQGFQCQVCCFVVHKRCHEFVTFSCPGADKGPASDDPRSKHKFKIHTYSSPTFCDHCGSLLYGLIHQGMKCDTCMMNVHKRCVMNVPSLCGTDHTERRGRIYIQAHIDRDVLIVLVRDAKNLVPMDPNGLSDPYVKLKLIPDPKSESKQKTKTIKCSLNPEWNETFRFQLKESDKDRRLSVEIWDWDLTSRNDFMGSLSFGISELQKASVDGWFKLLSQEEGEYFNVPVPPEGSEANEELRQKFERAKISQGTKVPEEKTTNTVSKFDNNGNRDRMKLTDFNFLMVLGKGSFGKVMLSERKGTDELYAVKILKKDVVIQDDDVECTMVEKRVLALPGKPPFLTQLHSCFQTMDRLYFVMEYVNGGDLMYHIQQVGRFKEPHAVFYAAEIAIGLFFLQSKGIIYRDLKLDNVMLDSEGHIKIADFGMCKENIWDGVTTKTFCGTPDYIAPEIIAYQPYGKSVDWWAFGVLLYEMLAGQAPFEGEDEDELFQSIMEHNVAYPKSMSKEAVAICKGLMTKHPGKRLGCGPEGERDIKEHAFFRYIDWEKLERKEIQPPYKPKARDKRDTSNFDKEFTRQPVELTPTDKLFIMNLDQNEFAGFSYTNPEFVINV

Consider `C[C@H](Nc1ncnc2nc[nH]c12)c1cc2cccc(Cl)c2c(=O)n1-c1ccccc1`, for which the Activity in [1] stood at 95.2%; in [2] it was 96.5%; in experiment [3], 100%; in [4], 94%; in [5], 96.7%; in experiment [6], 99.4%. Further, the Activity in experiment [7] stood at 96%; in experiment [8] it was 93.9%; in the experiment listed under Homo sapiens, 101%; in [9], 87.3%; in [10], 95.8%.
With `CC[C@H](Nc1ncnc2[nH]cnc12)c1nc2cccc(F)c2c(=O)n1-c1ccccc1`, the Activity in experiment [1] came out at 98.1%; in [2], 95.5%; in experiment [3] it was 102%; in [4], 92.7%; in experiment [5] it was 100%; in experiment [6], 98.7%. Further, the Activity was found to be 98.8% in experiment [7]; 95.2% in experiment [8]; 100% in the experiment listed under Homo sapiens; 88.2% in experiment [9]; 94.3% in [10].
In the case of `CC(C)Oc1ccc(-c2nn([C@@H](C)c3oc4ccc(F)cc4c(=O)c3-c3cccc(F)c3)c3ncnc(N)c23)cc1F` [UMBRALISIB], the Activity in [1] was determined as 101%; in experiment [2] it was 93.7%; in experiment [3], 105%; in experiment [4], 90.6%; in experiment [5] it was 96.5%; in experiment [6], 99%. The Activity in [7] stood at 99.1%; in experiment [8], 104%; in the experiment listed under Homo sapiens, 104%; in experiment [9], 81.6%; in experiment [10], 99.7%.
